Test results published in patent publication US12071404B2, “Aza (indole)-, benzothiophene-, and benzofuran-3-sulfonamides” (UCB Pharma GmbH, priority 2016, dated 2024).

How the values were obtained:
[1] = molecular target: T1, GPR17 (Homo sapiens, UniProt Q13304); test: Calcium mobilization functional assay (GPR17 Ca2+ assay); assay type: cell-based; design: host or cells: Flp-In T-REx CHO; settings: CHO hGPR17 cells, inhibition of 50 nM MDL29,951, Calcium 5 dye, FLIPR; read-out: Ca2+ assay pIC50 (converted)
Outline: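 pIC50 values were fitted with a 4-parameter logistic curve. They reflect test-compound inhibition of cytosolic Ca2+ release evoked by 50 nM MDL29,951, tracked as Calcium 5 fluorescence at room temperature. Cells were CHO Flp-In T-REx stably carrying human GPR17, induced with doxycycline 1 μg/mL for 16-20 h.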

[2] = molecular target: T1, GPR17; test: cAMP accumulation functional assay (HTRF, Schild analysis); assay type: cell-based; design: host or cells: Flp-In T-REx CHO; settings: CHO hGPR17 cells, Schild analysis vs MDL29,951, 5 μM forskolin, read-out: cAMP assay pA2 (converted)
Description: Flp-In T-REx CHO cells stably expressing human GPR17 receptor (CHO hGPR17) from Evi Kostenis' lab (Bonn University, Germany) were cultured at 37° C. in a humidified atmosphere of 5% CO2. Cells were grown in DMEM with Nutrient Mixture F-12 supplemented with hygromycin B (500 μg/mL) and blasticidin (30 μg/mL). Expression from the Flp-In locus was induced by treatment with doxycycline (1 μg/mL) for 16-20 h prior assays.
GPR17 activation can also recruit Gi-type G-protein signaling, resulting in a decrease of intracellular cyclic adenosine monophosphate (cAMP). Intracellular cAMP changes can be measured using the HTRF cAMP dynamic assay kit from CisBio (Codolet, France). Using homogenous time-resolved fluorescence technology (HTRF), the assay is based on competition between native cAMP produced by cells and cAMP labelled with the dye d2. The tracer binding was determined by an anti-cAMP antibody labeled with cryptate.
CHO hGPR17 were detached with PBS containing EDTA and dispatched in black 384-well plates with 5,000 cells per well. Cells were first incubated for 30 minutes at room temperature in HBSS Hepes (pH 7.4) containing vehicle or varying concentrations of test GPR17 antagonist/inverse agonist compounds. […] After 60 minutes incubation at room temperature, the reaction is terminated and the cells lysed by adding the d2 detection reagent and the cryptate reagent in 10 μL lysis buffer each according to manufacturer's instructions. After 60 minutes incubation, changes in cAMP concentrations are measured according to manufacturer's instructions using an Envision plate reader with laser excitation. All incubations were performed in duplicate. Data was analyzed using GraphPad Prism software using the 4-parameter logistic equation to measure MDL29,951 pEC50s in absence and presence of GPR17 antagonist/inverse agonist test compounds. Dose ratio (DR) were plotted against antagonist concentrations and Schild analysis provided estimated affinity pA2 of GPR17 antagonist/inverse agonist test compounds.
The activities of the Example compounds tested are depicted in the table below. The activity ranges A, B and C refer to pA2 values in the cAMP assay as follows: “A”: pA2<7.5, “B”: pA2 7.5<x≤8.5, “C”: pA2>8.5.

T1 sequence (Q13304 whole entry): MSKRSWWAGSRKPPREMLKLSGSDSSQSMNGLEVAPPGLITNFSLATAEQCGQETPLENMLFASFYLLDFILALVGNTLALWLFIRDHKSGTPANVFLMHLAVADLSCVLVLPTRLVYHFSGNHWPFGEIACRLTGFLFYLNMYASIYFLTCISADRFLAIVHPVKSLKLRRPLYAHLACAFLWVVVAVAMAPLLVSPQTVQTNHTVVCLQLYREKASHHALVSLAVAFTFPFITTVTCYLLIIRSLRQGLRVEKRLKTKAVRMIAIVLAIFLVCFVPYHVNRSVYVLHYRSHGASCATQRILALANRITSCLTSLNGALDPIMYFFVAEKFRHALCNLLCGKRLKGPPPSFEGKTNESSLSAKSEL

| Compound | IC50 [1] [nM] | Kb [2] [nM] |
| --- | --- | --- |
| CS(=O)(=O)c1ccc2c(S(=O)(=O)Nc3ccc(I)cc3F)c[nH]c2c1 [Compound I-48, N-(2-fluoro-4-iodophenyl)-6-(methylsulfonyl)-1H-indole-3-sulfonamide] | 3.16 to 31.6 | 3.16 to 31.6 |
| O=S(=O)(Nc1ccc(Cl)cc1)c1c[nH]c2cc(Cl)ccc12 [Compound I-24, 6-chloro-N-(4-chlorophenyl)-1H-indole-3-sulfonamide] | > 31.6 | > 31.6 |
| N#Cc1ccc(NS(=O)(=O)c2c[nH]c3cc(Cl)ccc23)cc1 [Compound I-12, 6-chloro-N-(4-cyanophenyl)-1H-indole-3-sulfonamide] | < 3.16 | 3.16 to 31.6 |
| O=S(=O)(Nc1cc(F)c(Br)cc1F)c1c[nH]c2c1ccc1cccnc12 [Compound I-305, N-(4-bromo-2,5-difluorophenyl)-1H-pyrrolo[3,2-h]quinoline-3-sulfonamide] | < 3.16 | < 3.16 |
| O=S(=O)(Nc1cccc2nsnc12)c1c[nH]c2cc(F)ccc12 [Compound I-107, N-(2,1,3-benzothiadiazol-4-yl)-6-fluoro-1H-indole-3-sulfonamide] | 3.16 to 31.6 | 3.16 to 31.6 |
| COc1ccc2c(S(=O)(=O)Nc3ccc(Cl)cc3F)c[nH]c2c1 [Compound I-69, N-(4-chloro-2-fluorophenyl)-6-methoxy-1H-indole-3-sulfonamide] | > 31.6 | > 31.6 |
| COc1ccc2c(S(=O)(=O)Nc3nc(OC)c(Cl)cc3F)c[nH]c2c1Cl [Compound I-356, 7-chloro-N-(5-chloro-3-fluoro-6-methoxypyridin-2-yl)-6-methoxy-1H-indole-3-sulfonamide] | 3.16 to 31.6 | 3.16 to 31.6 |
| O=S(=O)(Nc1ncc(Cl)cc1F)c1c[nH]c2cc(Cl)ccc12 [Compound I-202, 6-chloro-N-(5-chloro-3-fluoropyridin-2-yl)-1H-indole-3-sulfonamide] | < 3.16 | 3.16 to 31.6 |
| COc1cc(F)c(NS(=O)(=O)c2c[nH]c3cc(Cl)ccc23)cc1F [Compound I-298, 6-chloro-N-(2,5-difluoro-4-methoxyphenyl)-1H-indole-3-sulfonamide] | 3.16 to 31.6 | 3.16 to 31.6 |
| COc1cc(Br)cnc1NS(=O)(=O)c1c[nH]c2cc(Cl)ccc12 [Compound I-129, N-(5-bromo-3-methoxypyridin-2-yl)-6-chloro-1H-indole-3-sulfonamide] | 3.16 to 31.6 | 3.16 to 31.6 |
| COC/C=C/c1cc(F)c(NS(=O)(=O)c2c[nH]c3cc(Cl)ccc23)nc1F [Compound I-252, 6-chloro-N-{3,6-difluoro-5-[(1E)-3-methoxyprop-1-en-1-yl]pyridin-2-yl}-1H-indole-3-sulfonamide] | < 3.16 | < 3.16 |
| O=S(=O)(Nc1cc(F)ccc1F)c1c[nH]c2nc(Br)ccc12 [Compound I-88, 6-bromo-N-(2,5-difluorophenyl)-1H-pyrrolo[2,3-b]pyridine-3-sulfonamide] | 3.16 to 31.6 | 3.16 to 31.6 |
| COc1nc(NS(=O)(=O)c2c[nH]c3cc(Cl)c(F)cc23)c(F)cc1Cl [Compound I-339, 6-chloro-N-(5-chloro-3-fluoro-6-methoxypyridin-2-yl)-5-fluoro-1H-indole-3-sulfonamide] | < 3.16 | 3.16 to 31.6 |
| C#Cc1ccc(NS(=O)(=O)c2c[nH]c3cc(Cl)ccc23)c(F)c1 [Compound I-210, 6-chloro-N-(4-ethynyl-2-fluorophenyl)-1H-indole-3-sulfonamide] | 3.16 to 31.6 | < 3.16 |
| N#Cc1ccc(NS(=O)(=O)c2c[nH]c3cc(Cl)c(F)cc23)c(F)c1 [Compound I-258, 6-chloro-N-(4-cyano-2-fluorophenyl)-5-fluoro-1H-indole-3-sulfonamide] | < 3.16 | 3.16 to 31.6 |
| N#Cc1cc(F)c(NS(=O)(=O)c2c[nH]c3cc(Br)ccc23)cc1F [Compound I-188, 6-bromo-N-(4-cyano-2,5-difluorophenyl)-1H-indole-3-sulfonamide] | < 3.16 | < 3.16 |

| Compound | IC50 [1] [nM] | Kb [2] [nM] |
| --- | --- | --- |
| CS(=O)(=O)c1ccc2c(S(=O)(=O)Nc3ccc(C#N)cc3)c[nH]c2c1 [Compound I-14, N-(4-cyanophenyl)-6-(methylsulfonyl)-1H-indole-3-sulfonamide] | 3.16 to 31.6 | 3.16 to 31.6 |
| O=S(=O)(Nc1cc2c(cc1F)OC(F)(F)O2)c1c[nH]c2cc(Cl)ccc12 [Compound I-125, 6-chloro-N-(2,2,6-trifluoro-1,3-benzodioxol-5-yl)-1H-indole-3-sulfonamide] | 3.16 to 31.6 | 3.16 to 31.6 |
| CC(=O)c1ccc(NS(=O)(=O)c2c[nH]c3cc(Cl)ccc23)c(F)c1 [Compound I-219, N-(4-acetyl-2-fluorophenyl)-6-chloro-1H-indole-3-sulfonamide] | 3.16 to 31.6 | 3.16 to 31.6 |
| O=S(=O)(Nc1nc(F)c(Cl)cc1F)c1c[nH]c2nc(Cl)ccc12 [Compound I-307, 6-chloro-N-(5-chloro-3,6-difluoropyridin-2-yl)-1H-pyrrolo[2,3-b]pyridine-3-sulfonamide] | 3.16 to 31.6 | 3.16 to 31.6 |
| O=S(=O)(Nc1nc(F)c(Cl)cc1F)c1c[nH]c2cc(Cl)ccc12 [Compound I-199, 6-chloro-N-(5-chloro-3,6-difluoropyridin-2-yl)-1H-indole-3-sulfonamide] | 3.16 to 31.6 | < 3.16 |
| CS(=O)(=O)c1ccc2c(S(=O)(=O)Nc3cc(F)c(F)cc3F)c[nH]c2c1 [Compound I-239, 6-methylsulfonyl-N-(2,4,5-trifluorophenyl)-1H-indole-3-sulfonamide] | > 31.6 | > 31.6 |
| O=S(=O)(Nc1ccc(OC(F)(F)F)cc1F)c1c[nH]c2cc(Cl)ccc12 [Compound I-276, 6-chloro-N-[2-fluoro-4-(trifluoromethoxy)phenyl]-1H-indole-3-sulfonamide] | 3.16 to 31.6 | 3.16 to 31.6 |
| CCOC(=O)CCc1cc(F)c(NS(=O)(=O)c2c[nH]c3cc(Cl)ccc23)nc1F [Compound I-331, ethyl 3-(6-{[(6-chloro-1H-indol-3-yl)sulfonyl]amino}-2,5-difluoropyridin-3-yl)propanoate] | < 3.16 | < 3.16 |
| O=S(=O)(Nc1cc(F)c(OC(F)F)cc1F)c1c[nH]c2nc(Cl)ccc12 [Compound I-266, 6-chloro-N-[4-(difluoromethoxy)-2,5-difluorophenyl]-1H-pyrrolo[2,3-b]pyridine-3-sulfonamide] | < 3.16 | < 3.16 |
| COc1nc(NS(=O)(=O)c2c[nH]c3c(OC)c(Cl)ccc23)c(F)cc1Cl [Compound I-309, 6-chloro-N-(5-chloro-3-fluoro-6-methoxypyridin-2-yl)-7-methoxy-1H-indole-3-sulfonamide] | < 3.16 | < 3.16 |
| COc1ccc2c(S(=O)(=O)Nc3cc(F)c(Cl)cc3F)c(F)[nH]c2c1 [Compound I-318, N-(4-chloro-2,5-difluorophenyl)-2-fluoro-6-methoxy-1H-indole-3-sulfonamide] | 3.16 to 31.6 | 3.16 to 31.6 |
| COc1ccc2c(S(=O)(=O)Nc3cc(F)c(Br)cc3F)c[nH]c2c1 [Compound I-285, N-(4-bromo-2,5-difluorophenyl)-6-methoxy-1H-indole-3-sulfonamide] | < 3.16 | < 3.16 |
| O=S(=O)(Nc1ccc(C(F)(F)F)cc1F)c1c[nH]c2cc(Cl)ccc12 [Compound I-299, 6-chloro-N-[2-fluoro-4-(trifluoromethyl)phenyl]-1H-indole-3-sulfonamide] | 3.16 to 31.6 | < 3.16 |
| Cc1ccc2c(S(=O)(=O)Nc3ccc(Br)cc3F)c[nH]c2c1 [Compound I-173, N-(4-bromo-2-fluorophenyl)-6-methyl-1H-indole-3-sulfonamide] | 3.16 to 31.6 | 3.16 to 31.6 |
| O=S(=O)(Nc1ccc(OC(F)(F)F)cc1F)c1c[nH]c2nc(Cl)ccc12 [Compound I-273, 6-chloro-N-[2-fluoro-4-(trifluoromethoxy)phenyl]-1H-pyrrolo[2,3-b]pyridine-3-sulfonamide] | 3.16 to 31.6 | 3.16 to 31.6 |
| O=S(=O)(Nc1cc(F)c(Cl)cc1F)c1c[nH]c2cc(-c3ccsc3)ccc12 [Compound I-236, N-(4-chloro-2,5-difluorophenyl)-6-(thiophen-3-yl)-1H-indole-3-sulfonamide] | > 31.6 | > 31.6 |
